For 31 molecules, Ki and EC50 results are on record in US10472347B2, “Aminopyrazine compounds with A2A antagonist properties” (Merck Sharp & Dohme Corp., priority 2014, dated 2019).

Molecules are shown by their SMILES.

The target in the assay is T1, human A2a receptor (Homo sapiens, UniProt P29274).
T1 construct: purchased Perkin-Elmer RBHA2AM400UA; host or cells: HEK293 cells (membranes)
Put plainly: A2a competition binding assay, Scintillation Proximity technology. The settings on record: membranes from HEK293 cells expressing human A2a receptor; for Ki: Ki by Cheng-Prusoff equation; for EC50: 0.5 nM tritiated ligand. On the procedure:
Binding affinities of compounds of the invention for the human A2a receptor were determined in a competition binding assay using Scintillation Proximity technology. Thus, […] from HEK293 cells expressing the human A2a receptor were incubated with a compound of the invention at concentrations ranging from 3000 nM to 0.15 nM in a reaction mixture containing also 0.5 nM of a tritiated form of 5-amino-7-[2-phenethyl]-2-(furan-2-yl)-7H-pyrazolo[4,3-e][1,2,4]triazolo[1,5-c]pyrimidine (the tritiated compound) and 100 μg of wheat germ agglutin-coated yttrium silicate SPA beads for one hour at room temperature with agitation. The beads were then allowed to settle to the bottom of the wells for 1 hr, after which the membrane-associated radioactivity was determined by scintillation counting in a TopCount microplate reader. Ki values were determined using the Cheng-Prusoff equation.
HEK293 cells expressing the human, rat, dog or monkey adenosine 2a receptor (Purchased from Perkin-Elmer # RBHA2AM400UA).
The Tritiated compound was prepared in-house by MRL Radiochemistry according to published methods.
Wheat germ agglutinin-coated yttrium silicate SPA beads (GE Healthcare #RPNQ0023). Dilute to 25 mg/ml in assay buffer.
Assay Buffer was prepared in house: Dulbecco's calcium and magnesium free phosphate buffered saline+10 mM MgCl2
Adenosine deaminase from calf intestine, 10 mg/2 ml (Roche #10 102 105 001).
A2a antagonist standard (9-chloro-1-(2-furanyl)-[1,2,4]triazolo1,5-c]quinazolin-5-amine from Tocris Bioscience)
Make eight 1:3 serial dilutions in 100% DMSO from a 3 mM compound stock
Transfer 50 nl of compound into a 384-well OptiPlate (Perkin Elmer).
Typically, final concentrations of compound used in the assay ranged from 3000 nM to 0.152 nM.
Dilute a solution of the Tritiated compound to 1.25 nM in assay buffer. This is a 2.5× solution. The final concentration in the assay is 0.5 nM. Calculate the concentration by counting two 5 μl aliquots.
Use 0.25 ug of membrane/well. Dilute membranes to 9.7 μg/ml in assay buffer. Treat with 20 ug/ml adenosine deaminase (ADA) for 15 minutes at room temperature to degrade endogenous adenosine.
Use 100 μg/well wheat germ agglutinin-coated yttrium silicate SPA beads.
Mix ADA-treated membranes and SPA beads together for 30 min prior to assay.
To the Perkin-Elmer Optiplate-384 containing the compound titration add 20 μl of 2.5× solution of the Tritiated compound and 30 μl of the membrane-bead mixture. Incubate for one hour at room temperature with agitation.
Include total binding (assay buffer+1% DMSO) and non-specific binding (CGS15943, 1 μM) wells.
Allow the beads to settle for one hour.
A curve fitting program (i.e., Prism, Activity Base, Chemcart) is used to determine the EC50. The Ki value is calculated using the Cheng-Prusoff equation. Ki=EC50/(1+(radioligand concentration/Kd))

T1 sequence (P29274 whole entry): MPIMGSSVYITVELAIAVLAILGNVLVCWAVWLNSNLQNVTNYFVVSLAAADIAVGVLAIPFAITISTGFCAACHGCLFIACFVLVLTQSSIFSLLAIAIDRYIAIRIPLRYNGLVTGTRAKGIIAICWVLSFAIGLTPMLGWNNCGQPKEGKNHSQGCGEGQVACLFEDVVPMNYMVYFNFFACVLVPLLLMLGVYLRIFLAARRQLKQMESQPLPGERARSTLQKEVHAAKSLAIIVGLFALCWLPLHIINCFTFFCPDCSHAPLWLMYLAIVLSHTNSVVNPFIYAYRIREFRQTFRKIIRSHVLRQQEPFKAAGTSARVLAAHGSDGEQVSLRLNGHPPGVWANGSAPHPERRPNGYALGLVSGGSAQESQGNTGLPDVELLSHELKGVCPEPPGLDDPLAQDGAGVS

Broadly, the Ki is the equilibrium dissociation constant of an inhibitor or competing ligand from its target. A higher Ki goes with lower affinity. For `Cc1nc(C(=O)N[C@H]2CCC[C@@H]2O)c(N)nc1-c1ncco1` [Ex-211, 3-amino-N-[(1S,2S)-2-hydroxycyclopentyl]-6-methyl-5-(1,3-oxazol-2-yl)pyrazine-2-carboxamide], the Ki worked out at 7.37 nM.

Molecule `Cc1nc(C(=O)NC2CCC(F)(F)CC2)c(N)nc1-c1ncco1` [Ex-83, 3-amino-N-(4,4-difluorocyclohexyl)-6-methyl-5-(1,3-oxazol-2-yl)pyrazine-2-carboxamide] came in with a Ki of 3.18 nM.

The molecule `Cc1cnc(-c2nc(N)c(C(=O)NCc3ncccc3C)nc2C)o1` [Ex-383, 3-amino-6-methyl-5-(5-methyl-1,3-oxazol-2-yl)-N-[(3-methylpyridin-2-yl)methyl]pyrazine-2-carboxamide] had a Ki of 6.4 nM.

The molecule `Cc1ccc(CNC(=O)c2nc(C)c(-c3ncco3)nc2N)c(C)n1` [Ex-70, 3-amino-N-[(2,6-dimethylpyridin-3-yl)methyl]-6-methyl-5-(1,3-oxazol-2-yl)pyrazine-2-carboxamide] registered a Ki of 41 nM.

`Cc1nc(C(=O)NCc2ccc(Cl)cn2)c(N)nc1-c1ncco1` [Ex-49, 3-amino-N-[(5-chloropyridin-2-yl)methyl]-6-methyl-5-(1,3-oxazol-2-yl)pyrazine-2-carboxamide] came in with a Ki of 1.26 nM.

`COc1ccccc1CNC(=O)c1nc(C)c(-c2ncco2)nc1N` [Ex-144, 3-amino-N-(2-methoxybenzyl)-6-methyl-5-(1,3-oxazol-2-yl)pyrazine-2-carboxamide] returned an inhibitory constant (Ki) of 0.382 nM.

As for `CCn1cc2cccc(CNC(=O)c3nc(C)c(-c4ncco4)nc3N)c2n1` [Ex-216, 3-amino-N-[(2-ethyl-2H-indazol-7-yl)methyl]-6-methyl-5-(1,3-oxazol-2-yl)pyrazine-2-carboxamide], the affinity, expressed as Ki, was 0.123 nM.

On to `Cc1cnn(-c2nc(N)c(C(=O)NCc3ccc4cc[nH]c4c3)nc2Cl)c1` [Ex-354, 3-amino-6-chloro-N-(1H-indol-6-ylmethyl)-5-(4-methyl-1H-pyrazol-1-yl)pyrazine-2-carboxamide], for which the Ki was determined as 390 nM.

`Cc1nc(C(=O)NCc2nc(C(F)(F)F)cn2C)c(N)nc1-c1ncco1` [Ex-92, 3-amino-6-methyl-N-{[1-methyl-4-(trifluoromethyl)-1H-imidazol-2-yl]methyl}-5-(1,3-oxazol-2-yl)pyrazine-2-carboxamide] registered a Ki of 11.4 nM.

`Cc1nc(C(=O)N[C@H]2CC[C@@H](C(F)(F)F)CC2)c(N)nc1-c1ncco1` [Ex-101, 3-amino-6-methyl-5-(1,3-oxazol-2-yl)-N-[cis-4-(trifluoromethyl)cyclohexyl] pyrazine-2-carboxamide] yielded a Ki of 12.9 nM.

In general, EC50 refers to the midpoint of the concentration-response curve. A high value points to weaker potency. In turn, `Cc1nc(C(=O)N[C@H]2CCc3cccnc32)c(N)nc1-c1ncco1` (single isomer, unassigned) [Ex-1B] displayed an EC50 of 2.9 nM.

In turn, `Cc1nc(C(=O)NCc2ncc[nH]2)c(N)nc1-c1ncco1` [Ex-16, 3-amino-N-(1H-imidazol-2-ylmethyl)-6-methyl-5-(1,3-oxazol-2-yl)pyrazine-2-carboxamide] yielded a Ki of 5.14 nM.

The molecule `Cc1nc(C(=O)NCc2c(C)nc3ccccn23)c(N)nc1-c1ncco1` [Ex-97, 3-amino-6-methyl-N-[(2-methylimidazo[1,2-a]pyridin-3-yl)methyl]-5-(1,3-oxazol-2-yl)pyrazine-2-carboxamide] registered an inhibitory constant (Ki) of 35.2 nM.

On to `Cc1nc(C(=O)NCc2ccns2)c(N)nc1-c1ncco1` [Ex-40, 3-amino-N-(isothiazol-5-ylmethyl)-6-methyl-5-(1,3-oxazol-2-yl)pyrazine-2-carboxamide], for which the Ki was 14.6 nM.

Molecule `Cc1nc(C(=O)NCc2c(Cl)cccc2Cl)c(N)nc1-c1cnco1` [Ex-255, 3-amino-N-(2,6-dichlorobenzyl)-6-methyl-5-(1,3-oxazol-5-yl)pyrazine-2-carboxamide] yielded a Ki of 0.2 nM.

As to `Nc1nc(-n2ccnn2)c(Cl)nc1C(=O)NCc1ccc(F)cc1F` [Ex-270, 3-amino-6-chloro-N-(2,4-difluorobenzyl)-5-(1H-1,2,3-triazol-1-yl)pyrazine-2-carboxamide], the Ki was determined as 6470 nM.

With `Cc1nc(C(=O)NC(C)c2ccccn2)c(N)nc1-c1ncco1` (single isomer, unassigned) [Ex-82B, 3-amino-6-methyl-5-(1,3-oxazol-2-yl)-N-(1-pyridin-2-ylethyl)pyrazine-2-carboxamide], the Ki was determined as 43.5 nM.

`Cc1cccnc1CNC(=O)c1nc(C)c(-c2ncco2)nc1N` [Ex-5, 3-amino-6-methyl-N-[(3-methylpyridin-2-yl)methyl]-5-(1,3-oxazol-2-yl)pyrazine-2-carboxamide] gave an EC50 of 4.7 nM and a Ki of 0.199 nM.

With `Cc1cnn(-c2nc(N)c(C(=O)NCc3cnc4ccccn34)nc2Cl)c1` [Ex-360, 3-amino-6-chloro-N-(imidazo[1,2-a]pyridin-3-ylmethyl)-5-(4-methyl-1H-pyrazol-1-yl)pyrazine-2-carboxamide], the Ki is 615 nM.

On to `Cc1nc(C(=O)N[C@H]2CCc3cc(F)ccc32)c(N)nc1-c1ncco1` [Ex-200, 3-amino-N-[(1S)-5-fluoro-2,3-dihydro-1H-inden-1-yl]-6-methyl-5-(1,3-oxazol-2-yl)pyrazine-2-carboxamide], for which the Ki was determined as 14.7 nM.

`Cc1nc(C(=O)NCc2ccc(F)cn2)c(N)nc1-c1ncco1` [Ex-57, 3-amino-N-[(5-fluoropyridin-2-yl)methyl]-6-methyl-5-(1,3-oxazol-2-yl)pyrazine-2-carboxamide] came in with a Ki of 1.03 nM.

With `Cc1nc(C(=O)NCc2ncccc2F)c(N)nc1-c1ncco1` [Ex-20, 3-amino-N-[(3-fluoropyridin-2-yl)methyl]-6-methyl-5-(1,3-oxazol-2-yl)pyrazine-2-carboxamide], the affinity, expressed as Ki, was 0.365 nM.

The molecule `Cc1nc(C(=O)NCc2ncc(C(F)(F)F)cc2C2CC2)c(N)nc1-c1ncco1` [Ex-182, 3-amino-N-{[3-cyclopropyl-5-(trifluoromethyl)pyridin-2-yl]methyl}-6-methyl-5-(1,3-oxazol-2-yl)pyrazine-2-carboxamide] registered a Ki of 2.7 nM.

`Cc1cnn(-c2nc(N)c(C(=O)NCc3ccc(F)cc3F)nc2Cl)n1` [Ex-344, 3-amino-6-chloro-N-(2,4-difluorobenzyl)-5-(4-methyl-2H-1,2,3-triazol-2-yl)pyrazine-2-carboxamide]: the Ki came to 31 nM.

`Nc1cccc(F)c1CNC(=O)c1nc(Cl)c(-n2nccn2)nc1N` [Ex-304, 3-amino-N-(2-amino-6-fluorobenzyl)-6-chloro-5-(2H-1,2,3-triazol-2-yl)pyrazine-2-carboxamide] displayed a Ki of 3.6 nM.

With `N#Cc1nc(C(=O)NCc2cccc3cccnc23)c(N)nc1-n1cccn1` [Ex-385, 3-amino-6-cyano-5-(1H-pyrazol-1-yl)-N-(quinolin-8-ylmethyl)pyrazine-2-carboxamide], the Ki worked out at 0.6 nM.

In turn, `Cc1nc(C(=O)NC2c3ncccc3CC2O)c(N)nc1-c1ncco1` (single isomer, unassigned) [Ex-238B, 3-amino-N-(6-hydroxy-6,7-dihydro-5H-cyclopenta[b]pyridin-7-yl)-6-methyl-5-(1,3-oxazol-2-yl)pyrazine-2-carboxamide] came in with a Ki of 0.94 nM.

In turn, `Cc1nc(C(=O)NCc2ncccc2C(F)(F)F)c(N)nc1-c1ncco1` [Ex-18, 3-amino-6-methyl-5-(1,3-oxazol-2-yl)-N-{[3-(trifluoromethyl)pyridin-2-yl]methyl}pyrazin-2-carboxamide] showed a Ki of 0.151 nM.

For the molecule `Cc1nc(C(=O)NCc2cccc3cc[nH]c23)c(N)nc1-c1ncco1` [Ex-95, 3-amino-N-(1H-indol-7-ylmethyl)-6-methyl-5-(1,3-oxazol-2-yl)pyrazine-2-carboxamide], the affinity, expressed as Ki, was 0.276 nM.

On to `COc1ccccc1CNC(=O)c1nc(C)c(-c2cnco2)nc1N` [Ex-254, 3-amino-N-(2-methoxybenzyl)-6-methyl-5-(1,3-oxazol-5-yl)pyrazine-2-carboxamide], for which the Ki was determined as 1.47 nM.

For the molecule `Cc1nc(C(=O)NCc2nccc(F)c2C2CC2)c(N)nc1-c1ncco1` [Ex-180, 3-amino-N-[(3-cyclopropyl-4-fluoropyridin-2-yl)methyl]-6-methyl-5-(1,3-oxazol-2-yl)pyrazine-2-carboxamide], the Ki was 0.168 nM.
